Experimental data: patent publication US20050232933A1, “CMV-IE1 peptides and method of use” (priority 2003, published 2005)
Like-named read-outs stand apart in the source and are kept apart here.

Assays:
CD8 cells = experiment: Intracellular cytokine (ICC) IFN-γ assay, fresh blood from CMV seropositive stem cell transplantation subjects; assay type: cell-based, human
Procedure: Having identified IE1-297 peptide as an important epitope in the process of CTL response to CMV-IE1 immunization in A2 transgenic mice, this peptide was tested to determine if it was recognized by CD8 cells from CMV seropositive human subjects. Fresh whole blood samples were collected from four individuals susceptible to CMV reactivation 40, 120, 150 and 180 days after stem cell transplantation. Frozen white blood cells from the human subjects were stimulated for 6 hours with 100 μM IE1-297, pp65(p495) or HIV peptide (negative control) and PHA (positive control). The cells then were stained to detect CD8 and IFN-γ production. Four patient samples were analyzed by cytokine flow cytometry.

[1] = system: CD8+ peripheral blood lymphocytes; experiment: ICC/IFN-γ assay, cryopreserved PBL of HLA-A2 HCT subjects; conditions: CMV reactivation
Procedure: Five CMV seropositive HLA A2 human subjects showing CMV reactivation within 100 days post hematopoietic cell transplantation (HCT) and 6 CMV seropositive subjects without CMV reactivation were followed at days 40, 90, 120, 150, 180 and 360 post HCT. The intracellular IFN-γ response (ICC) to CMVpp65p495-503, CMV-IE1-256, IE1-297 and IE1-316 and the CD8 MHC/peptide binding (tetramer assay) using CMVpp65p495-503, IE1-297 and IE1-316 were analyzed in two groups.
Eleven HLA A*0201 HCT recipients, at risk for CMV infection because of donor and/or recipient CMV-seropositivity, were enrolled in this study. The subjects included related sibling donors and recipients of allogeneic HCT for hematologic malignancies as well as HCT recipients of matched unrelated donor (MUD).
Peripheral blood mononuclear cells (PBMC) from heparin-treated whole blood were isolated using Histopaque™-1077 density gradients, washed with 1× phosphate-buffered saline (PBS) and cryopreserved in aliquots of 3×10^6 to 5×10^6 cells/mL in 90% fetal bovine serum (FBS) and 10% dimethylsulfoxide. The plasma was collected by centrifugation, filtered through 0.45 μm Acrodisc™ filters and stored at −20° C. until DNA extraction.
Donor samples (except for MUD subjects) were drawn before administration of granulocyte-colony stimulating factor (G-CSF) and later at the time of harvest. Recipient blood samples were collected at day 40, 90, 120, 150, 180 and 360 post-transplant for ICC and tetramer binding assays, and the CMV reactivation was monitored starting at day 21 post-HCT and twice weekly until day 100 using a shell vial assay and quantitative PCR.
To evaluate the immune reactivity to CMV in HLA-A2 subjects, cryopreserved peripheral blood lymphocytes (PBL) from the subjects were stimulated with peptides derived from CMV-pp65 and CMV-IE1 proteins. […] The positive stimulation control contained phytohemagglutinin (PHA) and the negative control contained HIV peptide.
After 1 hour incubation at 37° C. in 5% CO2, 1 μL (stock 5 mg/mL) of Brefeldin A, a cytokine secretion inhibitor, was added to the cells and further incubated overnight. Samples were then washed with 1×PBS and 0.5% bovine serum albumin and stained for 20 minutes in the dark with 5 μL of anti-CD8 antibody conjugated to streptavidin-phycoerythrin (CD8-PE). The cells were fixed and permeabilized for 20 minutes using the Cytofix/Cytoperm Kit™ (Pharmingen™) and stained for 30 minutes at 4° C. in the dark with 1 μL of anti-IFN-γ conjugated with streptavidin-allophycocyanin (APC).
After purification, the peptides were dissolved in 10% DMSO/water to a concentration of 5 mM and used at a final concentration of 25 μM for T cell stimulation. […] The latter two peptides served as a positive and negative control, respectively.
For FACS, patient cell samples were washed twice with 1× Cytofix™ Wash Solution for analysis by fluorescence-activated cell sorting using a FACScalibur™ instrument. The lymphocytes were gated based on forward and side scatter. A minimum of 50,000 events were analyzed per sample. The reported data are the values obtained after subtraction of background levels acquired with HIV peptide stimulation (which ranged from 0.0% to 0.5%).

[2] = biological target: T1, HLA A*0201 molecule on T2 cells (Homo sapiens, UniProt P04439, D140Y/D185E/D98H/E176V/E277Q/G131W/G231S/I119V/I121R/I166T/I218V/L300P/L318F/N151K/N90K/P208A/P217A/Q86G/Q94H/R138H/R169H/T345S); assay type: binding
T1 construct: host or cells: T2 cells
Source text: T2 cells, ATCC accession no. CRL-1992, are defective for endogenous class I presentation, but peptide binding to the MHC molecule stabilizes its expression on the cell surface. The stabilized MHC molecule can be detected by flow cytometry with a monoclonal antibody to the HLA A*0201 molecule. T2 cells express HLA A*0201 but not the HLA DR and are class II MHC antigen negative. […] A293 cells are human embryonic kidney cells. A293-IE1 is a stably transfected human kidney cell line endogenously expressing the CMV-IE1 protein. All cells used in experiments were mycoplasma-free and were maintained in RPMI-1640 supplemented with 10% FBS, penicillin-streptomycin and 2 mM glutamine.
T2 cells are defective for endogenous class I presentation but the presence of peptide binding to the MHC molecule will stabilize its expression on the cell surface. The stabilized MHC molecule can be detected by flow cytometry using a monoclonal antibody to the HLA A-A*0201 molecule. Peptide sequences were selected using two algorithms for HLA peptide predicted motifs publicly available on the internet ([…] (Rammensee et al., Immunogenetics 50:213-219, 1999) and BIMAS).
The peptides were assayed on T2 cells for their ability to bind and stabilize the A2 molecules on the cell surface according to methods described in Gricks et al., Cancer Res. 61:5145-5152, 2001, with modifications. […] The level of stabilized HLA-A2 on the surface of the T2 cells was determined according to known methods using monoclonal antibody BB7.2, which specifically recognizes HLA A*0201 as described in BenMohamed et al., Hum. Immunol. 61:764-779, 2000 and Parham et al., Hum. Immunol. 3:277-299, 1981 and a FITC-labeled goat anti-mouse F(ab′)2. Fluorescence was detected with a FACSCalibur™ flowcytometer. Numbers in the peak channel were compared to control T2 cells that contained HLA mismatch B7 peptide or no peptide.
The results were expressed as fold increased fluorescence compared to the mean of no peptide and HLA mismatch B7 peptide.

CD8 human cells [3] = conditions: cited from earlier work; for Stimulatory grade, B: Khan et al. 2002 (ELISPOT): HLA A*0201
CD8 human cells [4] = experiment: Summary of stimulatory CMV IE1 HLA A*0201 restricted peptides, present report (Table I, A); assay type: cell-based
Source text: These mutations may contribute to the low incidence of response to individual IE1 peptides. The locations of putative mutations are underlined. See Frankenberg et al., Virology 295: 208-216, 2002. Typically, the mutations that would most dramatically affect the binding of an epitope into the MHC molecule are situated at the anchor site, amino acid positions p2 and p9 of a peptide. See Falk et al., Semin. Immunol. 15:81-94, 1993; Zaia et al., J. Virol. 75:2472-2474, 2001. The only peptide showing a p2-p9 unstable mutation site is IE1-315, first described by Retiere (J. Virol. 74:3948-3952, 2000) using a TNF release assay. […] See Khan et al., J. Infect. Dis. 185:1025-1034, 2002. However IE1-316, which contains possible mutations at site p1 and p8, was more frequently recognized in this same study (6 out of 18) in an IFN-γ elispot assay. IE1-297, possibly mutated at p1 and p5, is a strong candidate for CMV immune recognition as well, since 3 of 4 patient PBLs responded in an ICC (intracellular cytokine) assay. Therefore, despite the presence of point mutation sites in IE1 epitopes, provided the anchor sites are intact, IE1-297 and IE1-316 peptides are presented by the MHC molecule after immunization with or exposure to CMV in HLA A*0201 subjects. In summary, IE1-297, IE1-316 and IE1-256 are peptides that stimulate CD8 human cells (Table I).

CD8 human cells [5] = conditions: HLA A*0201; (pN) = peptide number in the source; cited from earlier work
[6] = T2 cells, 100 μM peptide, 18 hours
[7] = fluorescence compared to the mean of no peptide and HLA mismatch B7 peptide, 100 μM peptide

Substance: phytohemagglutinin [PHA]
- % CD8+/IFN-γ (CD8 cells; Patient No. 70, 150 days post-transplant): <33.15%
- % CD8+/IFN-γ (CD8 cells; Patient No. 70, 180 days post-transplant): 19.2%
- % CD8+/IFN-γ (CD8 cells; Patient No. 93, 120 days post-transplant): 37.6%
- % CD8+/IFN-γ (CD8 cells; Patient No. 100, 40 days post-transplant): 2.09%
- % CD8+/IFN-γ+ after peptide stimulation ([1]; Subj. 54, Day 40 post-HCT): 0.54%
- % CD8+/IFN-γ+ after peptide stimulation ([1]; Subj. 54, Day 90 post-HCT): 5.34%
- % CD8+/IFN-γ+ after peptide stimulation ([1]; Subj. 54, Day 150 post-HCT): 1.78%
- % CD8+/IFN-γ+ after peptide stimulation ([1]; Subj. 54, Day 180 post-HCT): 4.27%
- % CD8+/IFN-γ+ after peptide stimulation ([1]; Subj. 54, Day 360 post-HCT): 6.91%
- % CD8+/IFN-γ+ after peptide stimulation ([1]; Subj. 70(D) donor, postG): 0.63%
- % CD8+/IFN-γ+ after peptide stimulation ([1]; Subj. 70(D) donor, preG): 0.24%
- % CD8+/IFN-γ+ after peptide stimulation ([1]; Subj. 70, Day 40 post-HCT): 0.64%
- % CD8+/IFN-γ+ after peptide stimulation ([1]; Subj. 70, Day 90 post-HCT): 5.09%
- % CD8+/IFN-γ+ after peptide stimulation ([1]; Subj. 70, Day 120 post-HCT): 4.01%
- % CD8+/IFN-γ+ after peptide stimulation ([1]; Subj. 70, Day 150 post-HCT): 2.44%
- % CD8+/IFN-γ+ after peptide stimulation ([1]; Subj. 70, Day 180 post-HCT): 2.88%
- % CD8+/IFN-γ+ after peptide stimulation ([1]; Subj. 70, Day 360 post-HCT): 3.5%
- % CD8+/IFN-γ+ after peptide stimulation ([1]; Subj. 93(D) donor, postG): 6.08%
- % CD8+/IFN-γ+ after peptide stimulation ([1]; Subj. 93(D) donor, preG): 2.08%
- % CD8+/IFN-γ+ after peptide stimulation ([1]; Subj. 93, Day 40 post-HCT): 6.32%
- % CD8+/IFN-γ+ after peptide stimulation ([1]; Subj. 93, Day 120 post-HCT): 12.46%
- % CD8+/IFN-γ+ after peptide stimulation ([1]; Subj. 93, Day 150 post-HCT): 21.01%
- % CD8+/IFN-γ+ after peptide stimulation ([1]; Subj. 93, Day 360 post-HCT): 16.5%
- % CD8+/IFN-γ+ after peptide stimulation ([1]; Subj. 94, Day 40 post-HCT): 23.17%
- % CD8+/IFN-γ+ after peptide stimulation ([1]; Subj. 94, Day 90 post-HCT): 21.58%
- % CD8+/IFN-γ+ after peptide stimulation ([1]; Subj. 94, Day 120 post-HCT): 14.53%
- % CD8+/IFN-γ+ after peptide stimulation ([1]; Subj. 94, Day 150 post-HCT): 15.03%
- % CD8+/IFN-γ+ after peptide stimulation ([1]; Subj. 94, Day 180 post-HCT): 29.1%
- % CD8+/IFN-γ+ after peptide stimulation ([1]; Subj. 94, Day 360 post-HCT): 20.21%
- % CD8+/IFN-γ+ after peptide stimulation ([1]; Subj. 105(D) donor, postG): 5.3%
- % CD8+/IFN-γ+ after peptide stimulation ([1]; Subj. 105, Day 40 post-HCT): 11.56%
- % CD8+/IFN-γ+ after peptide stimulation ([1]; Subj. 105, Day 90 post-HCT): 40.76%
- % CD8+/IFN-γ+ after peptide stimulation ([1]; Subj. 105, Day 120 post-HCT): 29.38%
- % CD8+/IFN-γ+ after peptide stimulation ([1]; Subj. 105, Day 150 post-HCT): 26.14%

Substance: RPHERNGFTVL (listed as Human cytomegalovirus) [CMVB7-265]
- peak channel [2, 6]: 261
- Fold Increase [2, 7]: 1 fold

Substance: LLSEFCRV (LLSEFCRVL; listed as Human cytomegalovirus) [IE1-304]
- Stimulatory grade, B: Khan et al. 2002 (ELISPOT) (CD8 human cells [3]): neg
- peak channel [2, 6]: 433
- Fold Increase [2, 7]: 1.8 fold
- Stimulatory grade, A: Present Report (CD8 human cells [4]): neg
- Stimulatory grade, C: Frankenberg et al. 2002 (IVS4) (CD8 human cells [5]): (p4) neg

Substance: TPRVTGGGAM [CMVB7-417]
- Fold Increase [2]: 1 fold
- peak channel [2]: 232

Substance: SLLSEFCRV (listed as Human cytomegalovirus) [IE1-303]
- Stimulatory grade, B: Khan et al. 2002 (ELISPOT) (CD8 human cells [3]): neg
- Stimulatory grade, C: Frankenberg et al. 2002 (IVS4) (CD8 human cells [5]): (p9) poor

Substance: ILGADPLRV (listed as Human cytomegalovirus) [IE1-355]
- Stimulatory grade, B: Khan et al. 2002 (ELISPOT) (CD8 human cells [3]): neg
- Stimulatory grade, C: Frankenberg et al. 2002 (IVS4) (CD8 human cells [5]): (p10) poor

Substance: YVLEETSVM (listed as Human cytomegalovirus) [IE1-315]
- subjects recognizing the peptide in IFN-γ elispot (CD8 human cells [3]; out of 18 subjects, Khan et al.): one subject out of 18

Substance: VLAELVKQI (listed as Human cytomegalovirus) [IE1-81]
- Stimulatory grade, B: Khan et al. 2002 (ELISPOT) (CD8 human cells [3]): neg
- peak channel [2, 6]: 495
- Fold Increase [2, 7]: 2 fold
- Stimulatory grade, A: Present Report (CD8 human cells [4]): neg
- Stimulatory grade, C: Frankenberg et al. 2002 (IVS4) (CD8 human cells [5]): (p2) neg
